{"source": "patent EP2334184B1", "about": "“FUNGICIDAL MIXTURE, CONTAINING FENPROPIDIN AND PENCONAZOLE” (Syngenta Participations AG, priority 2008, dated 2010)", "key": {"rose varieties [1]": {"test_system": "rose varieties", "test": "Crop safety trials in Holland in April (summer trials)", "type": "in vivo", "details": "Cv. Red Naomi", "protocol": "(§1) These treatments were applied to 8 different rose varieties, and phytotoxicity assessments made at 7 day intervals. A phytotoxicity score of greater than 2.0% indicates unacceptable phytotoxicity; a score of 1.0 to 2.0% is acceptable (but not ideal); a score of less than 1.0% is good.\nCorresponding trials were conducted using selected treatments from table 9 above, in Holland in April, when the total light radiation level is above 2000 W/m^2 per day."}, "rose varieties [2]": {"test_system": "rose varieties", "test": "Crop safety trials in Holland during the winter / dark season", "type": "in vivo", "protocol": "The following trials were conducted in Holland during the winter period / dark season, when the total light radiation level is less than 2000 W/m^2 per day.\nas §1"}, "[3]": {"details": "Cv. Grand Prix, 7DAA1 (7 days after first application)"}, "[4]": {"details": "Cv. Grand Prix, <2000 W/m^2 per day, 0DAA0"}}}
{"smiles": "CCCC(Cn1cncn1)c1ccc(Cl)cc1Cl", "note": "(stereo not drawn) [Treatment 8]", "values": [{"measurement": "Percentage phytotoxicity (%)", "setting": "rose varieties [1]; 7DAA1", "value": 0.0, "unit": "%"}, {"measurement": "Percentage phytotoxicity (%)", "setting": "rose varieties [1]; 7DAA2", "value": 0.0, "unit": "%"}, {"measurement": "Percentage phytotoxicity (%)", "setting": "rose varieties [1]; 7DAA3", "value": 0.0, "unit": "%"}, {"measurement": "Percentage phytotoxicity (%)", "setting": "rose varieties [1]; 14DAA3", "value": 0.0, "unit": "%"}, {"measurement": "Percentage phytotoxicity (%)", "setting": "rose varieties [1]; >2000 W/m^2 per day, 0DAA0", "value": 0.0, "unit": "%"}, {"measurement": "Percentage phytotoxicity (%)", "setting": "rose varieties [2]; [3]", "value": 0.0, "unit": "%"}, {"measurement": "Percentage phytotoxicity (%)", "setting": "rose varieties [2]; Cv. Grand Prix, 7DAA2", "value": 0.0, "unit": "%"}, {"measurement": "Percentage phytotoxicity (%)", "setting": "rose varieties [2]; Cv. Grand Prix, 7DAA3", "value": 1.3, "unit": "%"}, {"measurement": "Percentage phytotoxicity (%)", "setting": "rose varieties [2]; Cv. Grand Prix, 14DAA3", "value": 0.0, "unit": "%"}, {"measurement": "Percentage phytotoxicity (%)", "setting": "rose varieties [2]; Cv. Grand Prix, 21DAA3", "value": 0.0, "unit": "%"}, {"measurement": "Percentage phytotoxicity (%)", "setting": "rose varieties [2]; [4]", "value": 0.0, "unit": "%"}, {"measurement": "Percentage phytotoxicity (%)", "setting": "rose varieties [2]; Cv. Red Naomi, 0DAA0", "value": 0.0, "unit": "%"}, {"measurement": "Percentage phytotoxicity (%)", "setting": "rose varieties [2]; Cv. Red Naomi, 6DAA2", "value": 0.7, "unit": "%"}, {"measurement": "Percentage phytotoxicity (%)", "setting": "rose varieties [2]; Cv. Red Naomi, 7DAA1", "value": 1.3, "unit": "%"}, {"measurement": "Percentage phytotoxicity (%)", "setting": "rose varieties [2]; Cv. Red Naomi, 7DAA3", "value": 0.7, "unit": "%"}, {"measurement": "Percentage phytotoxicity (%)", "setting": "rose varieties [2]; Cv. Red Naomi, 18DAA3", "value": 0.0, "unit": "%"}]}
{"smiles": "CCCC(Cn1cncn1)c1ccc(Cl)cc1Cl", "note": "(stereo not drawn) [Treatment 9]", "values": [{"measurement": "Percentage phytotoxicity (%)", "setting": "rose varieties [2]; [3]", "value": 0.0, "unit": "%"}, {"measurement": "Percentage phytotoxicity (%)", "setting": "rose varieties [2]; Cv. Grand Prix, 7DAA2", "value": 0.0, "unit": "%"}, {"measurement": "Percentage phytotoxicity (%)", "setting": "rose varieties [2]; Cv. Grand Prix, 7DAA3", "value": 4.0, "unit": "%"}, {"measurement": "Percentage phytotoxicity (%)", "setting": "rose varieties [2]; Cv. Grand Prix, 14DAA3", "value": 2.0, "unit": "%"}, {"measurement": "Percentage phytotoxicity (%)", "setting": "rose varieties [2]; Cv. Grand Prix, 21DAA3", "value": 0.3, "unit": "%"}, {"measurement": "Percentage phytotoxicity (%)", "setting": "rose varieties [2]; [4]", "value": 0.0, "unit": "%"}, {"measurement": "Percentage phytotoxicity (%)", "setting": "rose varieties [2]; Cv. Red Naomi, 0DAA0", "value": 0.0, "unit": "%"}, {"measurement": "Percentage phytotoxicity (%)", "setting": "rose varieties [2]; Cv. Red Naomi, 6DAA2", "value": 1.7, "unit": "%"}, {"measurement": "Percentage phytotoxicity (%)", "setting": "rose varieties [2]; Cv. Red Naomi, 7DAA1", "value": 2.7, "unit": "%"}, {"measurement": "Percentage phytotoxicity (%)", "setting": "rose varieties [2]; Cv. Red Naomi, 7DAA3", "value": 3.0, "unit": "%"}, {"measurement": "Percentage phytotoxicity (%)", "setting": "rose varieties [2]; Cv. Red Naomi, 18DAA3", "value": 0.7, "unit": "%"}]}
